Source: patent publication US9485989B2, “Method of controlling neonicotinoid resistant hemiptera” (Syngenta Participations AG, priority 2010, dated 2016)

Test system: Myzus Persicae (Green Peach Aphid)
Experiment: Example B1: Myzus persicae mixed population, feeding/residual contact activity, preventive (sunflower leaf discs)
Assay type: in vivo
Details: foliar, 144 h, A: neonicotinoid insecticides susceptible Myzus persicae (mixed age population), 6 DAT, read-out: Mortality (A)
Protocol: Myzus Persicae (Green Peach Aphid): Mixed Population, Feeding/Residual Contact Activity, Preventive
Sunflower leaf discs are placed on agar in a 24-well microtiter plate and sprayed with test solutions. After drying, the leaf discs are infested with an aphid population of mixed ages. After an incubation period of 6 DAT, samples are checked for mortality.

`CCOC(=O)OC1=C(c2c(C)cc(C)cc2C)C(=O)N(C)C12CCN(OC)CC2` [P1.2, Carbonic acid ethyl ester 8-methoxy-1-methyl-2-oxo-3-(2,4,6-trimethyl-phenyl)-1,8-diaza-spiro[4.5]dec-3-en-4-yl ester] gave a mortality at 200 ppm of 95%.

Same assay, conditions: foliar, 144 h, B: neonicotinoid insecticides resistant Myzus persicae (mixed age population), 6 DAT, read-out: Mortality (B)

`CCOC(=O)OC1=C(c2c(C)cc(C)cc2C)C(=O)N(C)C12CCN(OC)CC2` [P1.2, Carbonic acid ethyl ester 8-methoxy-1-methyl-2-oxo-3-(2,4,6-trimethyl-phenyl)-1,8-diaza-spiro[4.5]dec-3-en-4-yl ester] showed a mortality at 200 ppm of 90%.

Test system: not given
Experiment: not given
Details: not given

Compared with `CON1CCC2(CC1)C(O)=C(c1c(C)cc(Cl)cc1C)C(=O)N2OC1CCCO1` (stereo not shown) [P2ii.105], `CON1CCC2(CC1)C(O)=C(c1c(C)cc(Cl)cc1C)C(=O)N2OC` [P2ii.102] is lower in melting point: 137 to 139 °C for the first, 88 to 92 °C for the second.

First: COCCON1C(=O)C(c2c(C)cc(Cl)cc2C)=C(O)C12CCN(OC)CC2 [P2ii.101]
Second: COCON1C(=O)C(c2c(C)cc(Cl)cc2C)=C(O)C12CCN(OC)CC2 [P2ii.104]
The melting point of the first is lower: 161 to 164 °C for the first, 176 to 178 °C for the second.

First: CCOC(=O)OC1=C(c2cc(C)c(C)cc2Br)C(=O)N(C)C12CCN(OC)CC2 [P1.20]
Second: CCOC(=O)OC1=C(c2cc(C)c(C)cc2Cl)C(=O)N(C)C12CCN(OC)CC2 [P1.22]
The melting point of the first is higher: 158 to 159 °C for the first, 149 to 150 °C for the second.

First: CON1CCC2(CC1)C(O)=C(c1cc(C)ccc1C)C(=O)N2C [P2.1]
Second: CON1CCC2(CC1)C(O)=C(c1cc(C)c(C)cc1C)C(=O)N2C [P2.25]
The melting point of the first is lower: 121 to 123 °C for the first, 183 to 186 °C for the second.

`CON1CCC2(CC1)C(O)=C(c1cc(C)c(C)cc1Br)C(=O)N2C` [P2.23] and `CON1CCC2(CC1)C(O)=C(c1cc(C)c(C)cc1Cl)C(=O)N2C` [P2.26, 3-(2-Chloro-4,5-dimethyl-phenyl)-4-hydroxy-8-methoxy-1-methyl-1,8-diaza-spiro[4.5]dec-3-en-2-one] cannot be ordered by melting point: 191 to 193 °C for the first, 191 to 192 °C for the second.

First: COCON1C(=O)C(c2cc(Br)c(F)cc2C)=C(O)C12CCN(OC)CC2 [P2ii.89]
Second: COCCON1C(=O)C(c2cc(Br)c(F)cc2C)=C(O)C12CCN(OC)CC2 [P2ii.87]
The melting point of the first is lower: 64 to 67 °C for the first, 71 to 74 °C for the second.

Compared with `CON1CCC2(CC1)C(O)=C(c1c(C)cc(C)cc1C)C(=O)N2OCCOC1CCCCO1` (stereo not shown) [P2ii.22], `CON1CCC2(CC1)C(O)=C(c1c(C)cc(C)cc1C)C(=O)N2OCC1CCCCC1` [P2ii.96] is higher in melting point: 135 to 137 °C for the first, 169 to 172 °C for the second.

First: CON1CCC2(CC1)C(O)=C(c1cc(Br)c(C)cc1C)C(=O)N2OC [P2ii.75]
Second: CON1CCC2(CC1)C(O)=C(c1cc(Br)c(C)cc1C)C(=O)N2C [P2.28]
The melting point of the first is lower: 86 to 87 °C for the first, 182 to 183 °C for the second.

Compared with `CCOC(=O)OC1=C(c2c(C)cc(Cl)cc2C)C(=O)N(OC)C12CCN(OC)CC2` [P1ii.114], `CCOC(=O)OC1=C(c2c(C)cc(C)cc2C)C(=O)N(CC)C12CCN(OC)CC2` [P1.8] is lower in melting point: 122 to 125 °C for the first, 101 to 103 °C for the second.

First: CCOC(=O)OC1=C(c2c(F)ccc(C)c2Cl)C(=O)N(OCOC)C12CCN(OC)CC2 [P1ii.61]
Second: COCON1C(=O)C(c2c(F)ccc(C)c2Cl)=C(O)C12CCN(OC)CC2 [P2ii.60]
The melting point of the first is lower: 116 to 119 °C for the first, 155 to 158 °C for the second.

First: COCON1C(=O)C(c2cc(C)ccc2C)=C(OC(=O)CC(C)(C)C)C12CCN(OC)CC2 [P1ii.5]
Second: COCON1C(=O)C(c2cc(C)ccc2C)=C(OC)C12CCN(OC)CC2 [P1ii.31]
The melting point of the first is higher: 93 to 95 °C for the first, 91 to 93 °C for the second.

First: CCOC(=O)OC1=C(c2c(Cl)ccc(C)c2F)C(=O)N(OC2CCCC2)C12CCN(OC)CC2 [P1ii.43]
Second: CCOC(=O)OC1=C(c2cc(C)ccc2C)C(=O)N(C)C12CCN(OC)CC2 [P1.1]
The melting point of the first is higher: 135 to 137 °C for the first, 96 to 110 °C for the second.

First: CON1CCC2(CC1)C(O)=C(c1c(C)cc(C)cc1C)C(=O)N2CC1CC1 [P2.8, 1-Cyclopropylmethyl-4-hydroxy-8-methoxy-3-(2,4,6-trimethyl-phenyl)-1,8-diaza-spiro[4.5]dec-3-en-2-one]
Second: CCN1C(=O)C(c2c(C)cc(C)cc2C)=C(O)C12CCN(OC)CC2 [P2.11]
The melting point of the first is higher: 223 to 225 °C for the first, 218 to 221 °C for the second.

In the case of `COCCON1C(=O)C(c2cc(Br)c(C)cc2C)=C(O)C12CCN(OC)CC2` [P2ii.73], the melting point is reported as 63 to 64 °C.

For `COCON1C(=O)C(c2c(C)cc(-c3ccc(Cl)cc3)cc2C)=C(O)C12CCN(OC)CC2` [P2ii.15, 3-(4′-Chloro-3,5-dimethyl-biphenyl-4-yl)-4-hydroxy-8-methoxy-1-methoxymethoxy-1,8-diaza-spiro[4.5]dec-3-en-2-one], the melting point was 128 °C (dec.).

Test system: FRC-P strain of Myzus persicae (Neonicotinoid resistant)
Experiment: Example B2a: Myzus persicae mixed population, contact activity, curative on pea seedlings, resistant strain
Assay type: in vivo
Details: Lowest concentration giving greater than 80% mortality of resistant (FRC-P) aphids / same for susceptible aphids; Myzus persicae on pea seedlings, spray, 6 days after treatment
Description: (§1) The level of resistance and therefore the impact on the performance of the insecticide can be measured by the use of a ‘Resistance Factor’. The resistance factor can be calculated by dividing the concentration of an insecticide that provides a set level of mortality (i.e. 80%) for the ‘resistant’ strain with the concentration of the same insecticide that provides the same level of mortality for the ‘susceptible’ insect of the same species and life-stage. Although there are no set rules, a low value (1-10) indicates no cross-resistance and only natural levels of variation and a high value (50+) provides strong evidence of cross-resistance.
a) Neonicotinoid and Pyrethroid Resistant Strain of the Green Peach Aphid (Myzus persicae)
Myzus persicae strains utilised: • Standard screening strain of Myzus persicae (Neonicotinoid susceptible) • FRC-P strain of Myzus persicae (Neonicotinoid resistant) Bioassay Method:
Myzus persicae: mixed population, contact activity, curative on pea seedlings
Pea seedlings, infested with an aphid population of mixed ages, are treated with the test solutions in a spray chamber. 6 days after treatment, samples are checked for mortality.

For `CON1CCC2(CC1)C(=O)C(c1c(C)cc(C)cc1C)C(=O)N2OC1CCCO1` (stereo not shown), the “Resistance Factor (RF80)” value was <1.
In the case of `CCOC(=O)OC1=C(c2c(C)cc(Cl)cc2C)C(=O)NC12CCN(OC)CC2`, the “Resistance Factor (RF80)” value is reported as <1.
With `CN1COCN(Cc2cnc(Cl)s2)/C1=N\[N+](=O)[O-]` [thiamethoxam, reference compound] the “Resistance Factor (RF80)” value was >250.

First: CCOC(=O)OC1=C(c2c(C)cc(C)cc2C)C(=O)NC12CCN(OC)CC2
Second: CCOC(=O)OC1=C(c2c(C)cc(C)cc2C)C(=O)N(C)C12CCN(OC)CC2 [drawing 471]
The “Resistance Factor (RF80)” value of the first is higher: 4 for the first, 1 for the second.

First: CON1CCC2(CC1)NC(=O)C(c1c(C)cc(C)cc1C)C2=O (stereo not shown)
Second: CON1CCC2(CC1)NC(=O)C(c1c(C)cc(Cl)cc1C)C2=O (stereo not shown)
The “Resistance Factor (RF80)” value of the first is higher: 4 for the first, 1 for the second.

In the case of `CCOC(=O)OC1=C(c2c(C)cc(C)cc2C)C(=O)N(OCC)C12CCN(OC)CC2` [drawing 468], the “Resistance Factor (RF80)” value is reported as 4.

Same assay, conditions: neonicotinoid resistant FRC-P versus susceptible Myzus persicae; mortality 6 days after treatment

With `CN1COCN(Cc2cnc(Cl)s2)/C1=N\[N+](=O)[O-]` [thiamethoxam, reference compound] the “Resistance factor (RF)” value was “high”.

Test system: ALM07 strain (Neonicotinoid and pyrethroid resistant) of the Tobacco Whitefly (Bemisia tabaci)
Experiment: Example B2c: Bemisia tabaci residual activity, preventive egg lay (cotton seedlings), resistant strain
Assay type: in vivo
Details: Concentration giving 50% control of resistant (ALM07) whitefly egg lay / same for susceptible whitefly; Bemisia tabaci on cotton seedlings, 3 days after exposure
Description: as §1
c) Neonicotinoid and Pyrethroid Resistant Strain of the Tobacco Whitefly (Bemisia tabaci)
Bemisia tabaci strains utilised: • Standard screening strain of Bemisia tabaci (Neonicotinoid susceptible) • ALM07 strain of […] (Neonicotinoid and pyrethroid resistant) and originally provided by Rothamsted Research, UK. (>250 RF in residual mortality bioassay of adult whitefly with thiamethoxam). Bioassay Method: […]
Cotton seedlings, with all but a single leaf removed are treated with the diluted test solutions in a turn table spray chamber. […] 3 days after exposure, the total number of adult whitefly and the total number of whitefly eggs laid on the leaf are counted. Percentage control of egg lay is calculated and corrected for control mortality.

With `CCOC(=O)OC1=C(c2c(C)cc(C)cc2C)C(=O)N(C)C12CCN(OC)CC2` [drawing 476] the “Resistance Factor (RF50)” value was 4.

Test system: IND3 strain of Nilaparvata lugens (Neonicotinoid resistant)
Experiment: Example B2b: Nilaparvata lugens larvicide, feeding/contact activity, preventive (rice seedlings), resistant strain
Assay type: in vivo
Details: Lowest concentration giving greater than 80% mortality of resistant (IND3) hoppers / same for susceptible hoppers; Nilaparvata lugens N3 nymphs on rice seedlings, 6 and 12 days after treatment
Description: as §1
b) Neonicotinoid Resistant Strain of the Brown Planthopper (Nilaparvata lugens)
Nilaparvata lugens strains utilised: • Standard screening strain of Nilaparvata lugens (Neonicotinoid susceptible) • IND3 strain of Nilaparvata lugens (Neonicotinoid resistant) Bioassay Method:
Nilaparvata lugens: larvicide, feeding/contact activity, preventive
Rice seedlings are treated with the diluted test solutions in a turn table spray chamber. After drying, they are infested with 20 N3 nymphs. 6 and 12 days after the treatment samples are checked for mortality, growth regulation, and effects on the F1 generation.

First: CCOC(=O)OC1=C(c2c(C)cc(Cl)cc2C)C(=O)N(C)C12CCN(OC)CC2
Second: CCOC(=O)OC1=C(c2c(C)cc(C)cc2C)C(=O)N(OC2CCCO2)C12CCN(OC)CC2 (stereo not shown)
The “Resistance Factor (RF80)” value of the first is higher: 4 for the first, 1 for the second.

For `CON1CCC2(CC1)C(=O)C(c1c(C)cc(C)cc1C)C(=O)N2C` (stereo not shown), the “Resistance Factor (RF80)” value was 1.

With `CCOC(=O)OC1=C(c2c(C)cc(C)cc2C)C(=O)N(OCC)C12CCN(OC)CC2` [drawing 473] the “Resistance Factor (RF80)” value was <1.
In the case of `CN1COCN(Cc2cnc(Cl)s2)/C1=N\[N+](=O)[O-]` [thiamethoxam, reference compound], the “Resistance Factor (RF80)” value is reported as >64.

Same assay, conditions: neonicotinoid resistant IND3 versus susceptible Nilaparvata lugens

With `CN1COCN(Cc2cnc(Cl)s2)/C1=N\[N+](=O)[O-]` [thiamethoxam, reference compound] the “Resistance factor (RF)” value was “high”.
